These results are taken from patent US11896581B2, “Compositions and methods for providing health benefits in an animal” (Société des Produits Nestlé S.A., priority 2020, dated 2024).

Molecules are shown by their SMILES.

The subject of this assay is H4IIE cells. Briefly: Cellular bioassay of hepatic glucose production (gluconeogenesis) induced by sodium pyruvate and lactate (SLP). It counts as cell-based. The settings on record: for glucose production relative to SLP condition (100%): 6 h incubation. Here is the method:
A cellular bioassay was established according to a method described by Okamoto et al. (Establishment and characterization of a novel method for evaluating gluconeogenesis using hepatic cell lines, H4IIE and HepG2, Archives of Biochemistry and Biophysics, Volume 491, Issues 1-2, November 2009, Pages 46-52; Takashi Okamoto, Naohide Kanemoto, Takashi Ban, Toshiki Sudo, Keisuke Nagano, Ichiro Niki.) (FIG. 1). Briefly, H4IIE cells pre-cultured at high density were seeded into a 12-well plate at a density of 5.714×10^5 cells/cm^2 and cultured for 24 h in EMEM supplemented with 10% FCS. […] The assay was started by switching the medium for KHH Buffer in the presence of gluconeogenesis-inducing substrates (1 mM sodium pyruvate and 10 mM lactate). Compounds were added at different concentrations and tested in duplicate. 10 mM of metformin was included as a positive control for inhibition of gluconeogenesis. The conditioned medium was collected after 6 h of incubation (stored at −80° C.). The cells remaining in the wells are washed once with PBS and then stored dry at −20° C.). The medium is used to assay glucose content using a fluorometric glucose assay kit. Frozen cells' proteins are first extracted and then quantified, to normalize the glucose results. Components were tested in at least two independent experiments performed at different cell passages. The selected compounds (Histidine and Ferulic acid) were tested individually to assess their inhibitory effect on hepatic glucose production (Table 1) using a range of concentrations determined from previous internal knowledge and literature. Additional experiments on individual compounds were conducted: the amino acid arginine and leucine to test the specificity of histidine effects against other amino acids. In addition, interactions and synergies between compounds were further explored using combined formulations, for which detailed information is provided in Table 1. For data analysis described herein, results are expressed as relative glucose produced in every treatment compared to the glucose produced using SLP treatment. […] Independent experiments were performed, using different cells passages in each condition. […] Sodium Pyruvate (1 mM) and Sodium Lactate (10 mM) was used to induce gluconeogenesis in H4IIE cells.

For the compound `COc1cc(/C=C/C(=O)O)ccc1O` [Ferulic acid, ferulic acid], the “inhibition on doubling the dose” value was 30% (dose doubled from 0.5 μM to 1 μM) and 32% (dose doubled from 2 μM to 4 μM). Where the note is “dose doubled from 1 μM to 2 μM”, the “inhibiting effect of doubling the dose” value turned out to be 40%. Further, the “glucose production relative to SLP condition (100%)” value runs as follows: (single compound at 0.5 μM) 85.67%±3.81; (single compound at 0.8 μM) 81.51%±11.70; (single compound at 1 μM) 61.38%±15.82; (single compound at 2 μM) 36.57%±6.02; (single compound at 4 μM) 25.08%±5.03.

Regarding `CN(C)C(=N)N=C(N)N` [metformin, reference compound], the “glucose production relative to SLP condition (100%)” value (10 mM, positive control) is reported as 9.71%±4.2.

Regarding `N[C@@H](Cc1c[nH]cn1)C(=O)O` [histidine], the “inhibiting effect of doubling the dose” value is recorded as 52% (dose doubled from 0.5 mM to 1 mM) and 25% (dose doubled from 1 mM to 2 mM). Further, the “glucose production relative to SLP condition (100%)” value runs as follows: (single compound at 0.2 mM) 93.7%±10.85; (single compound at 0.5 mM) 87.00%±17.2; (single compound at 1 mM) 52.67%±4.16; (single compound at 2 mM) 39.19%±7.44; (single compound at 20 mM) 8.39%±2.49.

In the case of `N=C(N)NCCC[C@H](N)C(=O)O` [Arginine, arginine, reference compound], the “glucose production relative to SLP condition (100%)” value (single compound at 0.2 mM) was 81.44%±2.72, the “glucose production relative to SLP condition (100%)” value (single compound at 2 mM) is listed as 65.01%±11.52 and the “glucose production relative to SLP condition (100%)” value (single compound at 20 mM) is listed as 45.40%±3.57.

As for `CC(C)C[C@H](N)C(=O)O` [Leucine, leucine, reference compound], the “glucose production relative to SLP condition (100%)” value (single compound at 0.2 mM) is listed as 84.69%±1.05, the “glucose production relative to SLP condition (100%)” value (single compound at 2 mM) is on record as 75.37%±0.36 and the “glucose production relative to SLP condition (100%)” value (single compound at 20 mM) is reported as 83.76%±7.30.
